# Experimental data as given in ChEMBL document CHEMBL4840303, “Design, synthesis, biological evaluation and pharmacophore model analysis of novel tetrahydropyrrolo[3,4-c]pyrazol derivatives as potential TRKs inhibitors” (Eur J Med Chem, 2021).
# Assays:
# [1] = molecular target: High affinity nerve growth factor receptor (Homo sapiens, UniProt P04629); experiment: Inhibition of N-terminal GST-tagged human TRKA (436 to 790 residues) expressed in baculovirus infected Sf21 cells using TK as substrate in presence of ATP measured after 30 mins by HTRF assay
# Sequence of High affinity nerve growth factor receptor (P04629 whole entry, the tested form may be a part): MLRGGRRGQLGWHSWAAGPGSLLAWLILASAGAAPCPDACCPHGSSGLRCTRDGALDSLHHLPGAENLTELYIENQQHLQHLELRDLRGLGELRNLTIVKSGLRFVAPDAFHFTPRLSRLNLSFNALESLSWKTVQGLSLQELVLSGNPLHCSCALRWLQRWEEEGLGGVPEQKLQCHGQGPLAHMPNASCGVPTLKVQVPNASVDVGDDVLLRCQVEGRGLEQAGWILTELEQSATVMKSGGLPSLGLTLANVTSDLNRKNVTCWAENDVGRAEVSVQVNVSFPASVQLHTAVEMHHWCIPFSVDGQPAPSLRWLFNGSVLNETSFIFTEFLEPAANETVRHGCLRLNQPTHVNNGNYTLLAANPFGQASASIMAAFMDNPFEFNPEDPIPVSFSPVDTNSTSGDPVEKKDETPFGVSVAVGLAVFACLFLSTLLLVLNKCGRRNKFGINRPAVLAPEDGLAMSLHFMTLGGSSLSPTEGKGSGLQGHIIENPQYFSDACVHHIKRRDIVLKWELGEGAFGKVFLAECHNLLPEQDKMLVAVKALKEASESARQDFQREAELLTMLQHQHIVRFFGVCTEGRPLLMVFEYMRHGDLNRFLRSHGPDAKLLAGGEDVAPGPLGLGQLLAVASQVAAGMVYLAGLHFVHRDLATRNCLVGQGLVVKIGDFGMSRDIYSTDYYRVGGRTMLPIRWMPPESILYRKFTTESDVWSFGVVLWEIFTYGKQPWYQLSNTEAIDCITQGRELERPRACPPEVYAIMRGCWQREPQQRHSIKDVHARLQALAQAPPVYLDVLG
# [2] = molecular target: T1, BDNF/NT-3 growth factors receptor (Homo sapiens, UniProt Q16620); experiment: Inhibition of N-terminal GST-tagged human TRKB (456 to 822 residues) expressed in baculovirus infected Sf21 cells using TK as substrate in presence of ATP measured after 40 mins by HTRF assay
# T1 sequence (Q16620 whole entry, the tested form may be a part): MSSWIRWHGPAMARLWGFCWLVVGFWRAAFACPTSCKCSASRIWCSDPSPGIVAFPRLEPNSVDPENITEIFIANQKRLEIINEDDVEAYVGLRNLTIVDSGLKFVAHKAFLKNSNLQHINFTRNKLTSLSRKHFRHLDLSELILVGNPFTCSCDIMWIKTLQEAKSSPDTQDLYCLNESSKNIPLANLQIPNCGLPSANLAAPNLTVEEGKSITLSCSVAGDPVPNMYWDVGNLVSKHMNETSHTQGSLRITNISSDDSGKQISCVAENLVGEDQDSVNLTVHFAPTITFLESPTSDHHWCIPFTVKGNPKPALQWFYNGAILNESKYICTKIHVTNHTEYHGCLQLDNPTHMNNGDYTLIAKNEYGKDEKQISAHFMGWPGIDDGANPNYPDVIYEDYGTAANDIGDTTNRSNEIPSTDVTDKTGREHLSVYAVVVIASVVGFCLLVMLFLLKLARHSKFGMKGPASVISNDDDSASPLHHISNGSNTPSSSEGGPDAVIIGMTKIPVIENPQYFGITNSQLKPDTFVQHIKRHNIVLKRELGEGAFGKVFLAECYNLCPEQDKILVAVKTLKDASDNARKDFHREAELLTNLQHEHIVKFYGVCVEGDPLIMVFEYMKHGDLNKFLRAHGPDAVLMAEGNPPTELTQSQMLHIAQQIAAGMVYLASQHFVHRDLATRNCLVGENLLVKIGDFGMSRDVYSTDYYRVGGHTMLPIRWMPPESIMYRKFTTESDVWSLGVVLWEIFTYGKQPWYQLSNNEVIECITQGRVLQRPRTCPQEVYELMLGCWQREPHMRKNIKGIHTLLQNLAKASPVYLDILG
# KM12 = experiment: cells; details: Homo sapiens, KM12, 72 h
# Description: Antiproliferative activity against human KM12 cells assessed as inhibition of cell growth measured after 72 hrs by CCK-8 assay
# THLE-2 = experiment: cells; details: Homo sapiens, THLE-2, 72 h
# Description: Antiproliferative activity against human THLE-2 cells assessed as inhibition of cell growth measured after 72 hrs by CCK-8 assay
# A549 = experiment: cells; details: Homo sapiens, A549, 72 h
# Description: Antiproliferative activity against human A549 cells assessed as inhibition of cell growth measured after 72 hrs by CCK-8 assay
# [3] = molecular target: NT-3 growth factor receptor (Homo sapiens, UniProt Q16288); experiment: Inhibition of NT3-activated full length TRKC (unknown origin) by Cell-based beta-galactosidase PathHunter assay
# Sequence of NT-3 growth factor receptor (Q16288 whole entry): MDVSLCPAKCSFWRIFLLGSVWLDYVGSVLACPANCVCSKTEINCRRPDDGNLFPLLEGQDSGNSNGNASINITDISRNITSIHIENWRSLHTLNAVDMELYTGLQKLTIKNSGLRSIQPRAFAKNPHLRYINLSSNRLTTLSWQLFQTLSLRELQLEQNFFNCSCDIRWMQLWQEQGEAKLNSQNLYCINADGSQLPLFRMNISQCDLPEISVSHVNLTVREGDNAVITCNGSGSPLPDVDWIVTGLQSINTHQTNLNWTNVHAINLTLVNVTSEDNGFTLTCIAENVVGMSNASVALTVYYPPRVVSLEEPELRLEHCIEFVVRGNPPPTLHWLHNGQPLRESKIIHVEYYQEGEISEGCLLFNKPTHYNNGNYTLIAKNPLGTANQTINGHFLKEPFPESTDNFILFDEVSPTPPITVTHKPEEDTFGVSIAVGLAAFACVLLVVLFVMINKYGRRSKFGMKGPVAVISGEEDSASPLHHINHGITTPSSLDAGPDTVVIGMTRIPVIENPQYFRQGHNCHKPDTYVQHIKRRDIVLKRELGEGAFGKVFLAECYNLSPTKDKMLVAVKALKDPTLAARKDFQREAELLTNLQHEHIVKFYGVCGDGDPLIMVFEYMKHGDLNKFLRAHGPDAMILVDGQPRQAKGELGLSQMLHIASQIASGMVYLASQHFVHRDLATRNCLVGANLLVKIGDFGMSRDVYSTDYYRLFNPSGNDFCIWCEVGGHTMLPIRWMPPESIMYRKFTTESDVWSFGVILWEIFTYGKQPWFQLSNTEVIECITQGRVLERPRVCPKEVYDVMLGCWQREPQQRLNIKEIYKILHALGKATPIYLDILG
# [4] = molecular target: T1, BDNF/NT-3 growth factors receptor; experiment: Inhibition of BDNF-activated full length TRKB (unknown origin) by Cell-based beta-galactosidase PathHunter assay
SMILES,IC50 [1],other results
CC1(C)c2[nH]nc(NC(=O)c3ccc(F)cc3)c2CN1Cc1cc(F)cc(F)c1,350 nM,–
CC1(C)c2[nH]nc(NC(=O)c3ccccc3)c2CN1Cc1cc(C(F)(F)F)cc(C(F)(F)F)c1,16400 nM,–
CC1(C)c2[nH]nc(NC(=O)c3ccccc3)c2CN1Cc1cccc(Br)c1,940 nM,–
CC1(C)c2[nH]nc(NC(=O)c3ccccc3)c2CN1Cc1cc(F)cc(F)c1,190 nM,–
CC1(C)c2[nH]nc(NC(=O)c3ccc4ccccc4c3)c2CN1Cc1cccc(F)c1F,460 nM,–
CN(C)c1cccc(C(=O)Nc2n[nH]c3c2CN(Cc2cccc(F)c2F)C3(C)C)c1,420 nM,–
CC1(C)c2[nH]nc(NC(=O)c3ccccc3)c2CN1Cc1ccc(F)c(F)c1,680 nM,–
CN1CCN(c2cccc(C(=O)Nc3n[nH]c4c3CN(Cc3cccc(F)c3F)C4(C)C)c2)CC1,210 nM,–
CC1(C)c2[nH]nc(NC(=O)c3ccccc3)c2CN1Cc1cccc([N+](=O)[O-])c1,600 nM,–
CC1(C)c2[nH]nc(NC(=O)c3ccc(Br)cc3)c2CN1Cc1cc(F)cc(F)c1,710 nM,–
CC1(C)c2[nH]nc(NC(=O)c3ccccc3)c2CN1Cc1cc(F)ccc1F,480 nM,–
CC1(C)c2[nH]nc(NC(=O)c3ccc(N4CC[N+](C)(Cc5cc(F)cc(F)c5)CC4)cc3)c2CN1Cc1cc(F)cc(F)c1,95 nM,–
CC1(C)c2[nH]nc(NC(=O)c3ccccc3)c2CN1Cc1ccccc1,1240 nM,–
CC1(C)c2[nH]nc(NC(=O)c3ccc(F)cc3)c2CN1Cc1cccc(F)c1F,210 nM,–
CC1(C)c2[nH]nc(NC(=O)c3cccc(N4CCOCC4)c3)c2CN1Cc1cc(F)cc(F)c1,120 nM,IC50 [2]: 170 nM; IC50 (KM12): > 1000 nM
CN(C)c1ccc(C(=O)Nc2n[nH]c3c2CN(Cc2cc(F)cc(F)c2)C3(C)C)cc1,96 nM,–
CC1(C)c2[nH]nc(NC(=O)c3ccccc3)c2CN1Cc1cccc(Cl)c1,670 nM,–
Cc1cccc(CN2Cc3c(NC(=O)c4ccccc4)n[nH]c3C2(C)C)c1,1100 nM,–
CC1(C)c2[nH]nc(NC(=O)c3ccccc3)c2CN1Cc1ccc(F)cc1,1180 nM,–
CN1CCN(c2ccc(C(=O)Nc3n[nH]c4c3CN(Cc3cccc(F)c3F)C4(C)C)cc2)CC1,17 nM,IC50 [2]: 23 nM; IC50 (THLE-2): > 100000 nM; IC50 (KM12): 216 nM; IC50 (A549): 64200 nM
CC1(C)c2[nH]nc(NC(=O)c3ccccc3)c2CN1Cc1cccc(F)c1F,200 nM,–

SMILES,IC50 [1],other results
CC1(C)c2[nH]nc(NC(=O)c3ccc(N4CCOCC4)cc3)c2CN1Cc1cccc(F)c1F,29 nM,IC50 [2]: 35 nM; IC50 (THLE-2): 49500 nM; IC50 (KM12): 146 nM; IC50 (A549): 88500 nM
CC1(C)c2[nH]nc(NC(=O)c3cccc(N4CCOCC4)c3)c2CN1Cc1cccc(F)c1F,270 nM,–
CC1(C)c2[nH]nc(NC(=O)c3ccccc3)c2CN1Cc1cccc(F)c1,470 nM,–
Cc1ccc(CN2Cc3c(NC(=O)c4ccccc4)n[nH]c3C2(C)C)cc1F,940 nM,–
CC1(C)c2[nH]nc(NC(=O)c3ccccc3)c2CN1Cc1cc(F)c(F)c(F)c1,6960 nM,–
CN(C)c1cccc(C(=O)Nc2n[nH]c3c2CN(Cc2cc(F)cc(F)c2)C3(C)C)c1,270 nM,–
CC1(C)c2[nH]nc(NC(=O)c3ccccc3)c2CN1Cc1ccccc1F,450 nM,–
CC1(C)c2[nH]nc(NC(=O)c3ccccc3)c2CN1Cc1cc(F)cc(C(F)(F)F)c1,1000 nM,–
CC1(C)c2[nH]nc(NC(=O)c3ccccc3)c2CN1Cc1c(F)cccc1F,520 nM,–
CC1(C)c2[nH]nc(NC(=O)c3ccccc3)c2CN1Cc1cccc(C#N)c1,980 nM,–
CC1(C)c2[nH]nc(NC(=O)c3ccc(Br)cc3)c2CN1Cc1cccc(F)c1F,950 nM,–
CC1(C)c2[nH]nc(NC(=O)c3ccccc3)c2CN1Cc1cccc(I)c1,1360 nM,–
CC1(C)c2[nH]nc(NC(=O)c3ccc4ccccc4c3)c2CN1Cc1cc(F)cc(F)c1,440 nM,–
Cc1ncc(NC(=O)NC2c3ccccc3-c3ccccc32)c(-c2ccccc2)n1,–,IC50 [3]: 2500 nM; IC50 [4]: > 8100 nM
CC1(C)c2[nH]nc(NC(=O)c3ccc4ncccc4c3)c2CN1Cc1cc(F)cc(F)c1,180 nM,–
CC1(C)c2[nH]nc(NC(=O)c3ccc(N4CCOCC4)cc3)c2CN1Cc1cc(F)cc(F)c1,14 nM,IC50 [2]: 27 nM; IC50 (THLE-2): > 100000 nM; IC50 (KM12): 211 nM; IC50 (A549): > 100000 nM
CN(C)c1ccc(C(=O)Nc2n[nH]c3c2CN(Cc2cccc(F)c2F)C3(C)C)cc1,69 nM,–
CN1CCN(c2cccc(C(=O)Nc3n[nH]c4c3CN(Cc3cc(F)cc(F)c3)C4(C)C)c2)CC1,150 nM,IC50 [2]: 190 nM; IC50 (KM12): > 1000 nM
Cc1ccc(F)c(CN2Cc3c(NC(=O)c4ccccc4)n[nH]c3C2(C)C)c1,880 nM,–
CC1(C)c2[nH]nc(NC(=O)c3ccccc3)c2CN1Cc1ccc(F)cc1F,2320 nM,–
COc1cccc(CN2Cc3c(NC(=O)c4ccccc4)n[nH]c3C2(C)C)c1,1120 nM,–
